# Data published in the supplement of paper PMC10307832.
# Legend:
# Test in all cases: relative viability (nuclei count vs DMSO), 5 days (fraction); higher = more cells survive
# Wnt-C59 + Palbociclib = compound: CC1=NC=CC(=C1)C2=CC=C(C=C2)CC(=O)NC3=CC=C(C=C3)C4=CN=CC=C4 [Wnt-C59] + CC(=O)c1c(C)c2cnc(Nc3ccc(N4CCNCC4)cn3)nc2n(C2CCCC2)c1=O [Palbociclib] (partner 0.5 µM)
# How it was run: (§1)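 Lung cancer cell lines were seeded in 1536-well plates and dosed by pin tool the next day, with either a single drug or a fixed anchor-drug dose combined with five library-drug doses (not always all listed) spaced in √10 steps. Five days later, one step fixed the cells and stained their nuclei (final 0.05% Triton X-100, 1% formaldehyde, 1 ug/ml Hoechst), and nuclei were counted on 4× images. Relative viability is the nuclei count in treated wells divided by the count in vehicle wells, and each value is the median of duplicate plates.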
# Wnt-C59 + AZD7762 = compound: CC1=NC=CC(=C1)C2=CC=C(C=C2)CC(=O)NC3=CC=C(C=C3)C4=CN=CC=C4 [Wnt-C59] + NC(=O)Nc1cc(-c2cccc(F)c2)sc1C(=O)N[C@H]1CCCNC1 [AZD7762] (partner 0.2 µM)
# How it was run: as §1
# Wnt-C59 + Luminespib = compound: CC1=NC=CC(=C1)C2=CC=C(C=C2)CC(=O)NC3=CC=C(C=C3)C4=CN=CC=C4 [Wnt-C59] + CCNC(=O)c1noc(-c2cc(C(C)C)c(O)cc2O)c1-c1ccc(CN2CCOCC2)cc1 [Luminespib] (partner 0.01 µM)
# How it was run: as §1
# Lapatinib + Pemetrexed = compound: CS(=O)(=O)CCNCc1ccc(-c2ccc3ncnc(Nc4ccc(OCc5cccc(F)c5)c(Cl)c4)c3c2)o1 [Lapatinib] + Nc1nc2[nH]cc(CCc3ccc(C(=O)N[C@@H](CCC(=O)O)C(=O)O)cc3)c2c(=O)[nH]1 [Pemetrexed] (partner 0.2 µM)
# How it was run: as §1
Cell Line,relative viability (Wnt-C59 + Palbociclib; first compound 0.001 µM),relative viability (Wnt-C59 + Palbociclib; first compound 0.01 µM),relative viability (Wnt-C59 + Palbociclib; first compound 0.03162 µM),relative viability (Wnt-C59 + Palbociclib; first compound 0.1 µM),relative viability (Wnt-C59 + AZD7762; first compound 0.001 µM),relative viability (Wnt-C59 + AZD7762; first compound 0.01 µM),relative viability (Wnt-C59 + AZD7762; first compound 0.03162 µM),relative viability (Wnt-C59 + AZD7762; first compound 0.1 µM),relative viability (Wnt-C59 + Luminespib; first compound 0.001 µM),relative viability (Wnt-C59 + Luminespib; first compound 0.01 µM),relative viability (Wnt-C59 + Luminespib; first compound 0.03162 µM),relative viability (Wnt-C59 + Luminespib; first compound 0.1 µM),relative viability (Lapatinib + Pemetrexed; first compound 0.02 µM),relative viability (Lapatinib + Pemetrexed; first compound 0.06325 µM),relative viability (Lapatinib + Pemetrexed; first compound 0.2 µM),relative viability (Lapatinib + Pemetrexed; first compound 0.6325 µM),relative viability (Lapatinib + Pemetrexed; first compound 2 µM)
201T,0.347,0.352,0.359,0.358,0.713,0.697,0.598,0.606,1.03,1.07,0.996,1.02,0.377,0.288,0.298,0.359,0.326
A-427,0.55,0.513,0.509,0.562,0.801,0.815,0.831,0.688,0.886,0.943,0.715,0.933,0.928,0.949,0.946,1.06,0.963
ABC-1,0.621,0.693,1.03,0.923,0.89,0.686,0.488,0.518,1.18,0.807,0.736,0.598,–,–,–,–,–
BEN,0.477,0.437,0.538,0.534,0.823,0.623,0.761,0.856,0.331,0.423,0.457,0.598,0.409,0.847,0.683,0.802,0.71
CAL-12T,0.483,0.375,0.556,0.394,0.595,0.588,0.505,0.631,0.397,0.307,0.592,0.571,1.16,1.31,1.37,1.04,0.744
COR-L23,0.347,0.279,0.321,0.264,–,–,–,–,0.758,0.667,0.742,0.617,0.214,0.189,0.2,0.204,0.203
COR-L 105,0.362,0.373,0.379,0.438,–,–,–,–,0.913,0.609,0.823,0.645,1.09,1.16,0.953,0.68,0.619
ChaGo-K-1,0.97,0.885,0.953,0.957,0.893,0.844,0.955,0.901,0.672,0.71,0.765,0.543,0.281,0.274,0.265,0.264,0.253
EKVX,0.389,–,0.327,0.179,0.871,–,0.689,0.651,0.952,0.824,0.857,0.704,–,0.361,0.344,0.274,0.355
EMC-BAC-2,0.496,0.437,0.438,0.413,0.941,0.975,0.897,0.975,1.18,1.05,1.06,1.12,–,0.452,0.475,0.475,0.45
EPLC-272H,0.306,0.277,0.352,0.316,0.246,0.247,0.289,0.247,0.309,0.519,0.389,0.302,0.342,0.235,0.337,0.288,0.21
H3255,0.354,0.331,0.302,0.311,0.927,0.922,0.953,0.828,0.94,0.884,1.04,0.919,0.514,0.514,0.544,0.504,0.407
HARA,0.27,0.231,0.325,0.22,0.408,0.348,0.38,1.61,0.662,0.557,0.721,0.65,0.222,0.225,0.274,0.277,0.224
HCC-15,0.769,0.735,0.7,0.717,1.28,1.34,1.29,1.06,0.399,0.297,0.287,0.369,–,0.212,0.223,0.212,0.203
HCC-44,0.982,0.977,1.04,1,1.07,0.952,0.97,1.01,1.18,1.2,0.897,0.997,0.681,0.653,0.651,0.614,0.685
HCC-78,0.476,0.488,0.494,0.455,0.59,0.653,0.688,0.624,–,–,–,–,–,0.832,0.882,0.841,0.936
HCC-366,0.461,0.376,0.402,0.386,0.271,0.247,0.286,0.322,–,–,–,–,–,0.239,0.187,0.149,0.118
HCC-827,0.499,0.524,0.492,0.511,0.274,0.27,0.219,0.175,0.7,0.693,0.645,0.698,0.26,0.263,0.285,0.239,0.202
HOP-62,0.468,0.403,0.49,0.493,0.403,0.598,0.769,0.478,0.945,0.913,0.969,0.927,–,0.318,0.299,0.365,0.389
LC-2-ad,0.484,0.509,0.536,0.505,0.851,0.829,0.882,0.865,1.13,0.97,1.06,0.975,–,0.29,0.264,0.271,0.232
LCLC-97TM1,0.254,0.228,0.216,0.248,0.287,0.303,0.362,0.206,0.756,0.763,0.616,0.742,–,0.128,0.184,0.168,0.176
LCLC-103H,0.462,0.509,0.487,0.472,0.798,0.712,0.824,0.775,0.845,0.919,0.977,0.973,0.558,0.437,0.47,0.494,0.425

Cell Line,relative viability (Wnt-C59 + Palbociclib; first compound 0.001 µM),relative viability (Wnt-C59 + Palbociclib; first compound 0.01 µM),relative viability (Wnt-C59 + Palbociclib; first compound 0.03162 µM),relative viability (Wnt-C59 + Palbociclib; first compound 0.1 µM),relative viability (Wnt-C59 + AZD7762; first compound 0.001 µM),relative viability (Wnt-C59 + AZD7762; first compound 0.01 µM),relative viability (Wnt-C59 + AZD7762; first compound 0.03162 µM),relative viability (Wnt-C59 + AZD7762; first compound 0.1 µM),relative viability (Wnt-C59 + Luminespib; first compound 0.001 µM),relative viability (Wnt-C59 + Luminespib; first compound 0.01 µM),relative viability (Wnt-C59 + Luminespib; first compound 0.03162 µM),relative viability (Wnt-C59 + Luminespib; first compound 0.1 µM),relative viability (Lapatinib + Pemetrexed; first compound 0.02 µM),relative viability (Lapatinib + Pemetrexed; first compound 0.06325 µM),relative viability (Lapatinib + Pemetrexed; first compound 0.2 µM),relative viability (Lapatinib + Pemetrexed; first compound 0.6325 µM),relative viability (Lapatinib + Pemetrexed; first compound 2 µM)
LK-2,0.524,0.739,0.705,0.535,0.417,0.407,0.486,0.461,0.199,0.159,0.174,0.213,0.137,–,0.261,–,0.264
LOU-NH91,0.512,0.573,0.564,0.513,0.765,0.67,0.778,0.761,0.375,0.284,0.298,0.348,0.377,0.41,0.39,0.415,0.458
LU99A,0.451,0.372,0.446,0.417,0.374,0.491,0.338,0.313,0.249,0.269,0.249,0.263,0.203,0.161,0.223,0.178,0.182
LXF-289,0.624,0.551,0.602,0.606,1.06,1.07,1.09,1.07,0.607,0.666,0.618,0.712,0.891,0.901,0.884,0.844,0.768
NCI-H23,0.51,0.508,0.521,0.474,0.244,0.257,0.243,0.296,0.206,0.217,0.227,0.217,–,–,0.782,0.58,0.529
NCI-H322M,0.465,0.495,0.427,0.447,0.575,0.577,0.511,0.536,0.978,0.737,0.737,0.809,0.648,0.54,0.571,0.575,0.49
NCI-H358,0.134,0.128,0.153,0.1,0.448,0.582,0.588,0.617,0.315,0.341,0.291,0.475,0.173,0.157,0.16,0.167,0.189
NCI-H520,0.244,0.208,0.239,0.222,–,–,–,–,0.212,0.212,0.231,0.212,0.741,0.636,0.604,0.712,0.489
NCI-H596,–,–,–,–,1.06,1.03,0.987,1.08,1.14,1.08,1.06,1.06,–,0.505,0.531,0.504,0.494
NCI-H661,0.409,0.357,0.436,0.387,–,–,–,–,0.904,0.911,0.972,0.912,0.872,0.773,0.834,0.736,0.756
NCI-H727,0.607,0.678,0.627,0.733,0.776,0.528,0.598,0.687,0.332,–,0.857,0.526,–,–,–,–,–
NCI-H1563,–,–,–,–,–,–,–,–,0.498,0.539,0.565,0.528,0.651,0.862,0.652,0.843,0.666
NCI-H1623,–,–,–,–,–,–,–,–,0.594,0.413,0.544,0.481,–,–,–,–,–
NCI-H1648,0.288,0.241,0.259,0.23,0.565,0.797,0.53,0.622,–,–,–,–,–,0.62,0.789,0.636,0.64
NCI-H1650,0.341,0.321,0.318,0.378,–,–,–,–,0.223,0.197,0.203,0.214,0.364,0.377,0.395,0.337,0.345
NCI-H1703,–,–,–,–,0.158,0.107,0.135,0.129,–,–,–,–,–,–,–,–,–
NCI-H2009,0.231,0.149,0.198,0.239,–,–,–,–,1.04,0.976,1.07,0.997,0.972,1.02,1.05,0.98,0.998
NCI-H2023,0.389,0.4,0.399,0.371,–,–,–,–,0.775,0.757,0.785,0.702,–,0.182,0.233,0.193,0.186
NCI-H2228,1.06,0.633,0.884,0.869,–,–,–,–,0.173,0.149,0.223,0.197,0.338,0.34,0.312,0.272,0.331
SK-LU-1,0.356,0.343,0.423,0.359,–,–,–,–,0.211,0.219,0.184,0.206,0.961,0.9,1.02,0.98,0.886
SK-MES-1,0.29,0.321,0.316,0.339,–,–,–,–,0.88,0.792,0.78,0.739,0.824,0.93,0.943,0.997,0.405
SW 1573,0.413,0.368,0.466,0.408,–,–,–,–,0.227,0.398,0.37,0.177,–,0.716,0.883,0.882,0.759
